Laboratory results published in patent US20120122727A1, “IN VITRO METHOD FOR PREDICTING WHETHER A COMPOUND IS GENOTOXIC IN VIVO” (priority 2009, published 2012).
Like-named read-outs stand apart in the source and are kept apart here.

Key:
[1] = cited from earlier work
[2] = tested on: primary mouse hepatocytes; experiment: Class prediction true GTX vs false GTX by PAM from hepatocyte gene expression
Protocol: PAM uses gene expression data to calculate the shrunken centroid for each class and identifies the specific genes that determine the centroid most. Based on the nearest shrunken centroid, PAM is also capable of predicting to which class an unknown sample belongs (27). Class prediction was performed after 24 h and 48 h of exposure.
For this analysis, the gene list with differentially expressed probe sets was used. For each exposure period, 3 sets of genes (classifiers) were generated by PAM, using all ten treatments, based on the smallest estimated misclassification error rate (generated by 10-fold cross-validation) and a >80% predicted test probability. This was done by using 2 experiments as training set and the third experiment for validation. This was done for all 3 possible combinations, each time leaving out another experiment. For each time point, the classifiers that were in common between the three training sets, were set as the final classifier set for that time point
For the purpose of validating the class discrimination models with the final classifier sets, gene expression data were generated for two additional true GTX compounds, phenacetin and DMBA, and for three False GTX compounds, cur, ethylacrylate and resorcinol and the vehicle control for exposure periods of 24 and 48 h.

[3] = known class of the validation compound (GTX = true GTX, FP-GTX = false GTX)
[4] = 24 h exposure, independent triplicate treatments
[5] = 48 h exposure, independent triplicate treatments
[6] = PAM class prediction, 24 h, Exp 1
[7] = PAM class prediction, 24 h, Exp 2
[8] = PAM class prediction, 24 h, Exp 3
[9] = PAM class prediction, 48 h, Exp 1
[10] = PAM class prediction, 48 h, Exp 2
[11] = PAM class prediction, 48 h, Exp 3

Q: Which Genotoxic class [1, 3] does the source give for Cc1c2ccccc2c(C)c2c1ccc1ccccc12 [DMBA] here?
A: GTX

Q: What about the “class prediction (true GTX / false GTX)” value [2, 4] of the same compound?
A: classified correctly

Q: What about the “class prediction (true GTX / false GTX)” value [2, 5] of the same compound?
A: classified correctly

Q: And the “Prediction 24 h Exp 1” value [2, 6]?
A: GTX

Q: What about the “Prediction 24 h Exp 2” value [2, 7] of the same compound?
A: GTX

Q: What about the “Prediction 24 h Exp 3” value [2, 8] of the same compound?
A: GTX

Q: And the “Prediction 48 h Exp 1” value [2, 9]?
A: GTX

Q: And the “Prediction 48 h Exp 2” value [2, 10]?
A: GTX

Q: What about the “Prediction 48 h Exp 3” value [2, 11] of the same compound?
A: GTX

Q: What about the predicted test probability ([2]; both time points (24 and 48 h)) of the same compound?
A: 100%

Q: For CCOc1ccc(NC(C)=O)cc1 [Phen], which Genotoxic class [1, 3] is on record?
A: GTX

Q: And the “Prediction 24 h Exp 1” value [2, 6]?
A: GTX

Q: What about the “Prediction 24 h Exp 2” value [2, 7] of the same compound?
A: GTX

Q: What about the “Prediction 24 h Exp 3” value [2, 8] of the same compound?
A: GTX

Q: What about the “Prediction 48 h Exp 1” value [2, 9] of the same compound?
A: FP-GTX

Q: What about the “Prediction 48 h Exp 2” value [2, 10] of the same compound?
A: FP-GTX

Q: And the “Prediction 48 h Exp 3” value [2, 11]?
A: FP-GTX

Q: With COc1cc(/C=C/C(=O)CC(=O)/C=C/c2ccc(O)c(OC)c2)ccc1O [cur] as the compound, how does the Genotoxic class ([1]; in vivo) read?
A: FP-GTX

Q: What about the “Prediction 24 h Exp 1” value [2] of the same compound?
A: FP-GTX

Q: What about the “Prediction 24 h Exp 2” value [2] of the same compound?
A: FP-GTX

Q: And the “Prediction 24 h Exp 3” value [2]?
A: FP-GTX

Q: What about the “Prediction 48 h Exp 1” value [2] of the same compound?
A: FP-GTX

Q: And the “Prediction 48 h Exp 2” value [2]?
A: FP-GTX

Q: What about the “Prediction 48 h Exp 3” value [2] of the same compound?
A: FP-GTX

Q: And the “class prediction (true GTX / false GTX)” value [2]?
A: classified correctly

Q: And the predicted test probability [2]?
A: 100%

Q: With C=CC(=O)OCC [ethylacrylate] as the compound, how does the Genotoxic class ([1]; in vivo) read?
A: FP-GTX

Q: And the “class prediction (true GTX / false GTX)” value [2, 4]?
A: classified correctly

Q: What about the “class prediction (true GTX / false GTX)” value [2, 5] of the same compound?
A: classified correctly

Q: And the “Prediction 24 h Exp 1” value [2, 6]?
A: FP-GTX

Q: And the “Prediction 24 h Exp 2” value [2, 7]?
A: FP-GTX

Q: What about the “Prediction 24 h Exp 3” value [2, 8] of the same compound?
A: FP-GTX

Q: And the “Prediction 48 h Exp 1” value [2, 9]?
A: FP-GTX

Q: What about the “Prediction 48 h Exp 2” value [2, 10] of the same compound?
A: FP-GTX

Q: And the “Prediction 48 h Exp 3” value [2, 11]?
A: FP-GTX

Q: And the predicted test probability ([2]; both time points (24 and 48 h))?
A: 100%

Q: Which Genotoxic class [1, 3] does the source give for Oc1cccc(O)c1 [resorcinol] here?
A: FP-GTX

Q: What about the “Prediction 24 h Exp 1” value [2] of the same compound?
A: FP-GTX

Q: And the “Prediction 24 h Exp 2” value [2]?
A: FP-GTX

Q: And the “Prediction 24 h Exp 3” value [2]?
A: FP-GTX

Q: What about the “Prediction 48 h Exp 1” value [2] of the same compound?
A: FP-GTX

Q: What about the “Prediction 48 h Exp 2” value [2] of the same compound?
A: FP-GTX

Q: And the “Prediction 48 h Exp 3” value [2]?
A: FP-GTX

Q: What about the “class prediction (true GTX / false GTX)” value [2] of the same compound?
A: classified correctly

Q: What about the predicted test probability ([2]; mouse) of the same compound?
A: 100%
